Structures are written as SMILES.

For test [1], the target named is T1, B-cell lymphoma 6 protein (Homo sapiens, UniProt P41182). In words: Inhibition of human BCL6 BTP domain measured by fluorescence polarization assay. Background: Polarisation of emitted light reports the rotation of a fluorescent probe.
The target in test [2] is T1, B-cell lymphoma 6 protein. In words: Reversible inhibition of human BCL6 BTP domain measured by TR-FRET assay. (In general: TR-FRET usually uses a lanthanide donor and a delayed reading to cut background.)
Test [3] concerns the target T1, B-cell lymphoma 6 protein. In words: Binding affinity to human BCL6 BTP domain assessed as dissociation constant by SPR assay. (SPR reads the build-up and loss of mass on a sensor chip optically.)
Test [4] deals with Casein kinase II subunit alpha 3 (Homo sapiens, UniProt Q8NEV1). Put plainly: Inhibition of CK2 (unknown origin).
Casein kinase II subunit alpha 3, sequence (Q8NEV1 whole entry, the tested form may be a part): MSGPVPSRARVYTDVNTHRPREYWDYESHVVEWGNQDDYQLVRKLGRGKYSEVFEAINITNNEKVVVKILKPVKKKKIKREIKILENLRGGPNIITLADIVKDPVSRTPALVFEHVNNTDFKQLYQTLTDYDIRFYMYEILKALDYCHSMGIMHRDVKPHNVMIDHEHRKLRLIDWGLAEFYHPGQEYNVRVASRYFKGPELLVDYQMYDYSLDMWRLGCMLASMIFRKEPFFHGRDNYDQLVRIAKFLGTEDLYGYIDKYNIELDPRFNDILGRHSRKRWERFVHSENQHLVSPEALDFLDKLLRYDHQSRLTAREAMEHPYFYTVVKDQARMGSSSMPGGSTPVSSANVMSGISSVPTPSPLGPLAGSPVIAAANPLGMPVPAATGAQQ
The target in test [5] is T1, B-cell lymphoma 6 protein. Put plainly: Irreversible inhibition of human BCL6 BTP domain measured by TR-FRET assay.
In test [6] the target is T1, B-cell lymphoma 6 protein. Put plainly: Inhibition of human BCL6 BTP domain measured by TR-FRET assay.
Test [7] concerns the target T1, B-cell lymphoma 6 protein. Put plainly: Inhibition of human BCL6 BTP domain by ELISA assay.
For test [8], the target named is T1, B-cell lymphoma 6 protein. Put plainly: Inhibition of human BCL6 BTP domain measured by cell reporter assay.
The target in test [9] is T1, B-cell lymphoma 6 protein. Put plainly: Inhibition of human BCL6 BTP domain.

The term IC50 denotes the point on the concentration scale where inhibition reaches its midpoint. Turning to `N#Cc1c(NCC2CC2)ccnc1Cl`, in test [1], the IC50 was 207 µM.
In turn, `CNC(=O)COc1cc2cc(Nc3nc(NCc4cccc(S(C)(=O)=O)c4)ncc3Cl)cc(OC)c2n(C)c1=O` had an IC50 in test [2] of 0.368 µM.
As usually defined, the Kd is the equilibrium constant for the complex coming apart. For `CCNc1cc(-c2cccnc2)nc2ccnn12`, the Kd in [3] is 690 µM.
`Cc1ccccc1CN1C(=O)CCc2cc3cc(c21)OC/C=C/CO[C@H]1C[C@@H](CO)N(C1)c1cc(n2ncc(Cl)c2n1)N3` registered a concentration for half-maximal inhibition (IC50) in test [4] of more than 10 µM.
Compound `O=C1Cc2cc(Nc3nc(NCc4cccc(S(=O)(=O)F)c4)ncc3Cl)ccc2N1` yielded an IC50 in [5] of 0.251 µM.
`N#Cc1cnn2c(Nc3ccc4c(c3)CCC(=O)N4)cc(N3CCC[C@H]3CC(=O)O)nc12` yielded an IC50 in test [6] of 0.35 µM. For the same compound, in [3], the dissociation constant (Kd) was 1.1 µM.
For the compound `CNC(=O)COc1cc2cc(Nc3nc(NCc4cccc(S(=O)(=O)F)c4)ncc3Cl)cc(OC)c2n(C)c1=O`, 0.152 µM corresponded to half-maximal inhibition in test [5] (IC50).
In turn, `O=C1CCc2cc3cc(c2N1Cc1ccccc1)OC/C=C/CO[C@H]1C[C@@H](CO)N(C1)c1cc(n2ncc(Cl)c2n1)N3` came in with an IC50 in test [4] of more than 10 µM.
Compound `N#Cc1c(NCc2ccccc2)ccnc1Cl` displayed an IC50 in test [1] of 120 µM.
`COc1cccc(CN2C(=O)CCc3cc4cc(c32)OC/C=C/CO[C@H]2C[C@@H](CO)N(C2)c2cc(n3ncc(Cl)c3n2)N4)c1` displayed an IC50 in test [4] of more than 10 µM.
The compound `CSCC[C@H](N)C(=O)N[C@@H](CO)C(=O)N[C@@H](Cc1c[nH]c2ccccc12)C(=O)N[C@@H](CCCNC(=N)N)C(=O)N[C@H](C(=O)N1CCC[C@H]1C(=O)O)C(C)C` came in with an IC50 in test [7] of 620 µM.
As for `Nc1ncnc(Nc2ccccc2)n1` [Amanozine], the dissociation constant (Kd) in test [3] was 1200 µM.
Regarding `N#Cc1cnn2c3cc(nc12)N1C[C@H](C[C@H]1CO)OC/C=C/COc1cc(cc2c1NC(=O)CC2)N3`, the IC50 came out at 0.64 µM in test [4], 2 µM in test [8] and 0.0029 µM in test [6]. For the same compound, the Kd in test [3] was 0.0065 µM.
As for `Cc1cc(C)n(-c2ncc(Cl)c(Nc3ccc(Cl)cc3)n2)n1`, the IC50 in test [9] is more than 20 µM.
The same measure, in the same setting: in the case of `CNC(=O)COc1cc2cc(Nc3nc(-n4nc(C)cc4C)ncc3Cl)ccc2n(C)c1=O` it was 0.012 µM.
Turning to `Cn1c(=O)n(C)c2cc(Nc3ncccc3C#N)ccc21`, the IC50 in test [1] stood at 86 µM.
`CN(c1ncccc1CNc1nc(Nc2ccc3c(c2)CC(=O)N3)ncc1C(F)(F)F)S(C)(=O)=O`: the Kd in test [3] came to 88 µM.
As to `Nc1ncc(Cl)c(Nc2ccccc2)n1`, the Kd in [3] is 68 µM.
The compound `CC(=O)N[C@@H](Cc1c[nH]c2ccccc12)C(=O)N[C@@H](CCCNC(=N)N)C(=O)N[C@H](C(=O)N1CCC[C@H]1C(=O)O)C(C)C` had an IC50 in test [7] of 170 µM.
With `Cn1c(=O)n(C)c2cc(Nc3cc(SCc4ccccc4)ncn3)ccc21`, in test [1], inhibition was half-maximal at 70 µM (IC50).
In the case of `Cn1c(=O)n(CCC(C)(C)O)c2cc(Nc3ccnc(Cl)c3C#N)ccc21`, the IC50 in test [6] is 0.86 µM.
Still for that read-out and setting: in the case of `Nc1ncnc(Nc2ccccc2Cl)n1` it was 830 µM.
For the compound `CC(C)[C@H](NC(=O)[C@H](CCCNC(=N)N)NC(=O)[C@H](Cc1c[nH]c2ccccc12)NC(=O)[C@@H](N)CO)C(=O)N1CCC[C@H]1C(=O)O`, half-maximal inhibition in [7] (IC50) required 1500 µM.
Consider `N#Cc1cnn2c(Nc3ccc4c(c3)CCC(=O)N4)cc(N3CCC[C@H]3CO)nc12`, for which, in test [6], the IC50 was 0.37 µM. For the same compound, the dissociation constant (Kd) in test [3] came out at 0.5 µM.

These data come from BindingDB's records for doi:10.1021/jm9508853 (University of Maryland, 2021).
